Laboratory results reported in patent US8242174B2 (priority 2007, dated 2012).

What follows are molecules tested against Lethal factor protease (Bacillus anthracis, UniProt P15917) (assay: biochemical).
Chain of Lethal factor protease (P15917 34-809 limits assumed): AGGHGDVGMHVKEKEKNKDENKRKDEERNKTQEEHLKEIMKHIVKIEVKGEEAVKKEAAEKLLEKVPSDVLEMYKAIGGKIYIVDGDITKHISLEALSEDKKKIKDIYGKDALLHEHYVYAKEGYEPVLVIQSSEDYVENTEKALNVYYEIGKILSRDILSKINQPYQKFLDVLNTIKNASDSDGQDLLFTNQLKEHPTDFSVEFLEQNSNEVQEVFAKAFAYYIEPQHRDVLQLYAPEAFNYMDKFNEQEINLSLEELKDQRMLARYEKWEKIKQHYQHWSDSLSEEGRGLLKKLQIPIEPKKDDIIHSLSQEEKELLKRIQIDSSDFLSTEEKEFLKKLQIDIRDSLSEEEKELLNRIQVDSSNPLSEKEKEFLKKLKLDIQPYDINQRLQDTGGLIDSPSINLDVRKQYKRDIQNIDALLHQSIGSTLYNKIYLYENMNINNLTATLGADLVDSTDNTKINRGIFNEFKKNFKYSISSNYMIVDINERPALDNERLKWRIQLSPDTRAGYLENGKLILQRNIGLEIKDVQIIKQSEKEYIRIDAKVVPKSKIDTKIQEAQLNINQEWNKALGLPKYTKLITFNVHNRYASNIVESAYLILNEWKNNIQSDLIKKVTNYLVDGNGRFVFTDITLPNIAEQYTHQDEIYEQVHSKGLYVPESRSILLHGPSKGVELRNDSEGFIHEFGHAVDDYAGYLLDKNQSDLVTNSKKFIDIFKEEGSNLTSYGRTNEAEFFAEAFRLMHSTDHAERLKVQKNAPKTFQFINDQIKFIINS

Compound | Ki
Cc1cc(N[C@H](CCCCNS(=O)(=O)c2ccc(N(C)C)cc2)C(=O)NO)cc(C)c1F [Compound 167699, (R)-6-(4-Dimethylamino-benzenesulfonylamino)-2-(4-fluoro-3,5-dimethyl-phenylamino)-hexanoic acid hydroxyamide] | 0.43 µM
Cc1cc(N[C@H](CCCCNS(=O)(=O)c2cccc(N(C)C)c2)C(=O)NO)cc(C)c1F [Compound 167700, (R)-6-(3-Dimethylamino-benzenesulfonylamino)-2-(4-fluoro-3,5-dimethyl-phenylamino)-hexanoic acid hydroxyamide] | 0.88 µM
CCCCC(Nc1cc(Cl)cc(Cl)c1)C(=O)NO (centres unmarked) [Compound 167718, 2-(3,5-Dichloro-phenylamino)-hexanoic acid hydroxyamide] | 12.2 µM
CCCCC(Nc1cccc(C#N)c1)C(=O)NO (centres unmarked) [Compound 167719, 2-(3-Cyano-phenylamino)-hexanoic acid hydroxyamide] | 49 µM
CCCCC(Nc1ccc(F)c(C#N)c1)C(=O)NO (centres unmarked) [Compound 167720, 2-(3-Cyano-4-fluoro-phenylamino)-hexanoic acid hydroxyamide] | 11.8 µM
CCCCC(Nc1cc(C)cc(F)c1)C(=O)NO (centres unmarked) [Compound 167722, 2-(3-Fluoro-5-methyl-phenylamino)-hexanoic acid hydroxyamide] | 19 µM
Cc1cc(N[C@H](CCCCNCc2ccccc2)C(=O)NO)cc(C)c1F [Compound 167736, (R)-6-Benzylamino-2-(4-fluoro-3,5-dimethyl-phenylamino)-hexanoic acid hydroxyamide] | 0.11 µM
Cc1cc(N[C@H](CCCCNCc2cccc([N+](=O)[O-])c2)C(=O)NO)cc(C)c1F [Compound 167737, (R)-2-(4-Fluoro-3,5-dimethyl-phenylamino)-6-(3-nitro-benzylamino)-hexanoic acid hydroxyamide] | 0.07 µM
Cc1cc(N[C@H](CCCCN(Cc2ccccc2)Cc2ccccc2)C(=O)NO)cc(C)c1F [Compound 167738, (R)-6-Dibenzylamino-2-(4-fluoro-3,5-dimethyl-phenylamino)-hexanoic acid hydroxyamide] | 0.43 µM
Cc1cc(CNCCCC[C@@H](Nc2cc(C)c(F)c(C)c2)C(=O)NO)cc(C)c1F [Compound 167759, 6-(4-Fluoro-3,5-dimethyl-benzylamino)-2-(4-fluoro-3,5-dimethyl-phenylamino)-hexanoic acid hydroxyamide] | 0.07 µM
CCCCC(Nc1cc(OC)cc(OC)c1)C(=O)NO (centres unmarked) [Compound 167772, 2-(3,5-Dimethoxy-phenylamino)-hexanoic acid hydroxyamide] | 257 µM
CCCCC(Nc1ccc(F)c(OC)c1)C(=O)NO (centres unmarked) [Compound 167793, 2-(4-Fluoro-3-methoxy-phenylamino)-hexanoic acid hydroxyamide] | 157 µM
CCCCC(Nc1cc(F)cc(F)c1)C(=O)NO (centres unmarked) [Compound 167807, 2-(3,5-Difluoro-phenylamino)-hexanoic acid hydroxyamide] | 228 µM
CCCCC(Nc1cc(Br)cc(Br)c1)C(=O)NO (centres unmarked) [Compound 167843, 2-(3,5-Dibromo-phenylamino)-hexanoic acid hydroxyamide] | 52.3 µM
CCCCC(Nc1cc(C)cc(Br)c1)C(=O)NO (centres unmarked) [Compound 167844, 2-(3-Bromo-5-methyl-phenylamino)-hexanoic acid hydroxyamide] | 3.5 µM
Cc1cc(N[C@H](CCCCNC(=O)OC(C)(C)C)C(=O)NO)ccc1F [Compound 167926, (R)-[5-(4-Fluoro-3-methyl-phenylamino)-5-hydroxycarbamoyl-pentyl]-carbamic acid tert-butyl ester] | 2.9 µM
Cc1cccc(CN(CCCC[C@@H](Nc2cc(C)c(F)c(C)c2)C(=O)NO)Cc2cccc(C)c2)c1 [Compound 167932, (R)-6-[Bis-(3-methyl-benzyl)-amino]-2-(4-fluoro-3,5-dimethyl-phenylamino)-hexanoic acid hydroxyamide] | 1.1 µM
